# Source: patent publication US10562912B2 (C&C Research Laboratories, priority 2013, dated 2020)
# Experiments:
# Format in all cases: cell-based
# [1] = target: T1, STAT3 (Homo sapiens, UniProt P40763); assay: STAT3 reporter gene assay (luciferase), LNCaP stable cell line (pSTAT3-TA-luc), IL-6 stimulation
# T1 construct: plasmid pSTAT3-TA-luc), which contains a stably operating STAT3 promoter; endogenous in cells
# Method in brief: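 Cytotoxicity was run on a duplicate plate with CellTiter-Glo, while the other plate gave luciferase read-outs from lysed LNCaP pSTAT3-TA-luc reporter cells. Cells were treated with graded compound concentrations plus IL-6 (10 ng/mL final) for 24–48 h in 3% DCC-FBS medium. Unstimulated and stimulated wells served as negative and positive controls.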
# [2] = tested on: LNCaP; assay: Cell growth inhibition assay, prostate cancer cell line LNCaP (medium with 10 ng/mL IL-6); details: Homo sapiens, medium supplemented with 10 ng/mL of IL-6, 10,000 cells/well
# [3] = tested on: DU-145; assay: Cell growth inhibition assay, prostate cancer cell line DU-145; details: Homo sapiens, DU-145 prostate cancer cell line
# Method in brief: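 Seed DU-145/HCT116 3,000 cells/well, SW626 5,000 cells/well; add compound dilution series; incubate 72–96 h, 37° C., 5% CO2; microscope check for precipitate; CellTiter-Glo, luminescence. Blank = no cells; vehicle = 0.1% DMSO.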
# T1 sequence (P40763 whole entry): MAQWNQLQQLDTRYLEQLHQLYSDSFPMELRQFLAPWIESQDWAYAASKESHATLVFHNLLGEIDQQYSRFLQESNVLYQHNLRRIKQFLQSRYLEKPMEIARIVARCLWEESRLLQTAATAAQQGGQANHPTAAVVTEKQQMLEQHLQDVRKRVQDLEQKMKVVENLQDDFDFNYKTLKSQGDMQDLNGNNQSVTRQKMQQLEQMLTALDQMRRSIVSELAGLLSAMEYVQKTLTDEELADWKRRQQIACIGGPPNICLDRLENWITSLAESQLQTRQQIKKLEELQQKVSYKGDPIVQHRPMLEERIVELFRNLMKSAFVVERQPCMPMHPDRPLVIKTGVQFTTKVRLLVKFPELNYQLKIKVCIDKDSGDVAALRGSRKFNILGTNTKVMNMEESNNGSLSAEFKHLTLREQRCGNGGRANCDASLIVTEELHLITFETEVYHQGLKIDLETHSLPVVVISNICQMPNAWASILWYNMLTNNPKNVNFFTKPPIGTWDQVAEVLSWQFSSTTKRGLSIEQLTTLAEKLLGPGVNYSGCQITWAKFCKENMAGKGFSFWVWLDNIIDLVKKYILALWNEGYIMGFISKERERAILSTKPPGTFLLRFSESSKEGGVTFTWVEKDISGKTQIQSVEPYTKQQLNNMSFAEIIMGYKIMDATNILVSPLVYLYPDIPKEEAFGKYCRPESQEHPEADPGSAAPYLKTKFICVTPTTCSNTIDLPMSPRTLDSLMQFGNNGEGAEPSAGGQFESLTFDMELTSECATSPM
Structure (SMILES),IC50 [1] [µM],IC50 [2] [µM],IC50 [3] [µM]
"Cc1ccc(C(C)(C)c2cc(Cl)cc(NC(=O)c3cc4cc(NS(C)(=O)=O)ccc4s3)c2)s1 [Example 178, N-(3-chloro-5-(2-(5-methylthiophen-2-yl)propan-2-yl)phenyl)-5-(methylsulfonamido)benzo[b]thiophene-2-carboxamide]",0.025,0.042,0.024
"CC(C)(c1cc(Cl)cc(NC(=O)c2cc3cc(NS(C)(=O)=O)ccc3s2)c1)c1cc(OC(F)(F)F)ccc1F [Example 62, N-(3-chloro-5-(2-(2-fluoro-5-(trifluoromethoxy)phenyl)propan-2-yl)phenyl)-5-(methylsulfonamido)benzo[b]thiophene-2-carboxamide]",0.011,0.075,0.016
"CC(C)Oc1cc(OC(F)(F)F)cc(C(C)(C)c2cc(I)cc(NC(=O)c3cc4cc(NS(C)(=O)=O)ccc4s3)c2)c1 [Example 213, N-(3-iodo-5-(2-(3-isopropoxy-5-(trifluoromethoxy)phenyl)propan-2-yl)phenyl)-5-(methylsulfonamido)benzo[b]thiophene-2-carboxamide]",0.018,0.025,0.011
"CC(C)(c1cc(Cl)cc(NC(=O)c2cc3cc(NS(C)(=O)=O)ccc3s2)c1)c1cccs1 [Example 170, N-(3-chloro-5-(2-(thiophen-2-yl)propan-2-yl)phenyl)-5-(methylsulfonamido)benzo[b]thiophene-2-carboxamide]",0.068,0.059,0.005
"CS(=O)(=O)Nc1ccc2sc(C(=O)Nc3cc(Cl)cc(Oc4cccc(OC(F)(F)F)c4)c3)cc2c1 [Example 450, N-(3-chloro-5-(3-(trifluoromethoxy)phenoxy)phenyl)-5-(methylsulfonamido)benzo[b]thiophene-2-carboxamide]",0.1,0.099,0.06
"CS(=O)(=O)Nc1ccc2sc(C(=O)Nc3cc(Cl)cc(Oc4ccc(F)c(F)c4)c3)cc2c1 [Example 460, N-(3-chloro-5-(3,4-difluorophenoxy)phenyl)-5-(methylsulfonamido)benzo[b]thiophene-2-carboxamide]",0.15,0.23,0.13
"CC(C)Oc1cc(OC(F)(F)F)cc(C(C)(C)c2cc(Cl)cc(NC(=O)c3cc4cc(NS(=O)(=O)CC5CCOCC5)ccc4s3)c2)c1 [Example 198, N-(3-chloro-5-(2-(3-isopropoxy-5-(trifluoromethoxy)phenyl)propan-2-yl)phenyl)-5-(((tetrahydro-2H-pyran-4-yl)methyl)sulfonamido)benzo[b]thiophene-2-carboxamide]",0.03,0.046,0.017
"CS(=O)(=O)Nc1ccc2sc(C(=O)Nc3cc(Cl)cc(-c4cccs4)c3)cc2c1 [Example 336, N-(3-chloro-5-(thiophen-2-yl)phenyl)-5-(methylsulfonamido)benzo[b]thiophene-2-carboxamide]",0.13,0.21,0.065
"CC(C)Oc1cc(OC(F)(F)F)cc(C(C)(C)c2cc(Cl)cc(NC(=O)C3=Cc4cc(NS(C)(=O)=O)ccc4S3(=O)=O)c2)c1 [Example 222, N-(3-chloro-5-(2-(3-isopropoxy-5-(trifluoromethoxy)phenyl)propan-2-yl)phenyl)-5-(methylsulfonamido)benzo[b]thiophene-2-carboxamide 1,1-dioxide]",6.1,> 1.1,> 1.1
"COc1cc(OC(F)(F)F)cc(C(C)(C)c2cc(Br)cc(NC(=O)c3cc4cc(NS(C)(=O)=O)ncc4[nH]3)c2)c1 [Example 99, N-(3-bromo-5-(2-(3-methoxy-5-(trifluoromethoxy)phenyl)propan-2-yl)phenyl)-5-(methylsulfonamido)-1H-pyrrolo[2,3-c]pyridine-2-carboxamide 2,2,2-trifluoroacetate]",0.22,1.5,0.8
"CS(=O)(=O)Nc1ccc2sc(C(=O)Nc3cc(Cl)cc(-c4cnccn4)c3)cc2c1 [Example 338, N-(3-chloro-5-(pyrazin-2-yl)phenyl)-5-(methylsulfonamido)benzo[b]thiophene-2-carboxamide]",0.92,> 1.1,0.43
"CS(=O)(=O)Nc1cc2cc(C(=O)Nc3cc(Cl)cc(OC4CCCCC4)c3)sc2cc1Cl [Example 486, 6-chloro-N-(3-chloro-5-(cyclohexyloxy)phenyl)-5-(methylsulfonamido)benzo[b]thiophene-2-carboxamide]",0.11,0.083,0.048
"Cn1cncc1-c1cc(Cl)cc(NC(=O)c2cc3cc(NS(C)(=O)=O)ccc3s2)c1 [Example 340, N-(3-chloro-5-(1-methyl-1H-imidazol-5-yl)phenyl)-5-(methylsulfonamido)benzo[b]thiophene-2-carboxamide]",> 10,> 1.1,> 1.1
"CN(c1ccc(Cl)cc1)c1cc(Cl)cc(NC(=O)c2cc3cc(NS(C)(=O)=O)c(Cl)cc3s2)c1 [Example 441, 6-chloro-N-(3-chloro-5-((4-chlorophenyl)(methyl)amino)phenyl)-5-(methylsulfonamido)benzo[b]thiophene-2-carboxamide]",0.009,0.012,0.026
"CS(=O)(=O)Nc1ccc2sc(C(=O)Nc3cc(Cl)cc(Oc4cccc(C#N)c4)c3)cc2c1 [Example 459, N-(3-chloro-5-(3-cyanophenoxy)phenyl)-5-(methylsulfonamido)benzo[b]thiophene-2-carboxamide]",0.36,0.79,0.59
"CC(C)Oc1cc(CN2CCN(c3noc(C(C)C)n3)CC2)cc(C(C)(C)c2cc(F)cc(NC(=O)c3cc4cc(NS(C)(=O)=O)ccc4s3)c2)c1 [Example 136, N-(3-fluoro-5-(2-(3-isopropoxy-5-((4-(5-isopropyl-1,2,4-oxadiazol-3-yl)piperazin-1-yl)methyl)phenyl)propan-2-yl)phenyl)-5-(methylsulfonamido)benzo[b]thiophene-2-carboxamide]",0.059,0.38,0.051
"CS(=O)(=O)Nc1cc2cc(C(=O)Nc3cc(Cl)cc(Oc4ccc(C(F)(F)F)cc4)c3)sc2cc1Cl [Example 482, 6-chloro-N-(3-chloro-5-(4-(trifluoromethyl)phenoxy)phenyl)-5-(methylsulfonamido)benzo[b]thiophene-2-carboxamide]",0.016,0.013,0.005
"COc1cc(OC(F)(F)F)cc(C(C)(C)c2cc(F)cc(NC(=O)c3cc4cc(NS(C)(=O)=O)ccc4s3)c2)c1 [Example 63, N-(3-fluoro-5-(2-(3-methoxy-5-(trifluoromethoxy)phenyl)propan-2-yl)phenyl)-5-(methylsulfonamido)benzo[b]thiophene-2-carboxamide]",0.034,0.037,0.01
"Cc1cc(OC(C)C)cc(C(C)(C)c2cc(Cl)cc(NC(=O)c3cc4c(Br)c(NS(C)(=O)=O)ccc4s3)c2)c1 [Example 488, 4-bromo-N-(3-chloro-5-(2-(3-isopropoxy-5-methylphenyl)propan-2-yl)phenyl)-5-(methylsulfonamido)benzo[b]thiophene-2-carboxamide]",0.35,2.5,1.1
"CS(=O)(=O)Nc1ccc2sc(C(=O)Nc3cc(Cl)cc(-c4ccsc4)c3)cc2c1 [Example 332, N-(3-chloro-5-(thiophen-3-yl)phenyl)-5-(methylsulfonamido)benzo[b]thiophene-2-carboxamide]",0.061,0.17,0.042
"CC(C)Oc1cc(CN2CCN(S(=O)(=O)N(C)C)CC2)cc(C(C)(C)c2cc(Cl)cc(NC(=O)c3cc4cc(NS(C)(=O)=O)ccc4s3)c2)c1 [Example 131, N-(3-chloro-5-(2-(3-((4-(N,N-dimethylsulfamoyl)piperazin-1-yl)methyl)-5-isopropoxyphenyl)propan-2-yl)phenyl)-5-(methylsulfonamido)benzo[b]thiophene-2-carboxamide]",0.085,0.26,0.1
"CS(=O)(=O)Nc1ccc2sc(C(=O)Nc3cc(Cl)cc(Oc4cc(Cl)cc(Cl)c4)c3)cc2c1 [Example 464, N-(3-chloro-5-(3,5-dichlorophenoxy)phenyl)-5-(methylsulfonamido)benzo[b]thiophene-2-carboxamide]",0.17,0.31,0.16
"CS(=O)(=O)Nc1cc2cc(C(=O)Nc3cc(Cl)cc(Oc4ccc(Cl)cc4)c3)sc2cc1Br [Example 453, 6-bromo-N-(3-chloro-5-(4-chlorophenoxy)phenyl)-5-(methylsulfonamido)benzo[b]thiophene-2-carboxamide]",0.022,0.35,0.018
"CS(=O)(=O)Nc1cc2cc(C(=O)Nc3cc(Cl)cc(Oc4ccc(Cl)c(F)c4)c3)sc2cc1Cl [Example 477, 6-chloro-N-(3-chloro-5-(4-chloro-3-fluorophenoxy)phenyl)-5-(methylsulfonamido)benzo[b]thiophene-2-carboxamide]",0.025,0.013,0.01
"Cn1cccc1-c1cc(Cl)cc(NC(=O)c2cc3cc(NS(C)(=O)=O)ccc3s2)c1 [Example 334, N-(3-chloro-5-(1-methyl-1H-pyrrol-2-yl)phenyl)-5-(methylsulfonamido)benzo[b]thiophene-2-carboxamide]",0.096,0.14,0.059
